# Experimental data reported in the supplement of paper PMC8612539.
# Assays:
# [1] = system: Enterococcus spp.; assay: minimum inhibitory concentration (MIC)
# Experimental: (§1)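 Broth microdilution MIC (Sensititre BOPO7F bovine plate, CLSI methods) of 19 antimicrobials against field isolates of P. multocida, M. haemolytica, H. somni (deep nasopharyngeal swabs) and E. coli, Enterococcus spp. (rectal swabs) from weaned dairy heifers. Incubation 16-24 h at 35 C. MIC is the lowest concentration preventing visible growth. Values with <= or > lie at the tested range limits. Trimethoprim-sulfamethoxazole is given as the trimethoprim component of a 1:19 mixture.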
# [2] = system: Mannheimia haemolytica; assay: minimum inhibitory concentration (MIC)
# Experimental: as §1
# [3] = isolate (source animal id): 122
# [4] = isolate (source animal id): 123
# [5] = isolate (source animal id): 133
# [6] = isolate (source animal id): 171
# [7] = isolate (source animal id): 183
# [8] = isolate (source animal id): 187
# [9] = isolate (source animal id): 190
# [10] = isolate (source animal id): 211
# [11] = isolate (source animal id): 223
# [12] = isolate (source animal id): 241
# [13] = isolate (source animal id): 252
# [14] = isolate (source animal id): 282
# [15] = isolate (source animal id): 298
# [16] = isolate (source animal id): 320
# [17] = isolate (source animal id): 333
structure (smiles),measurement,setting,value
CCC[C@@H]1C[C@@H](C(=O)N[C@@H]([C@H]2O[C@H](SC)[C@H](O)[C@@H](O)[C@H]2O)[C@H](C)Cl)N(C)C1 [Clindamycin],minimum inhibitory concentration,[1]; isolate (source animal id): 2,≤ 0.25 µg/mL
same,minimum inhibitory concentration,[1]; isolate (source animal id): 35,> 16 µg/mL
same,minimum inhibitory concentration,[1]; isolate (source animal id): 42,16 µg/mL
same,minimum inhibitory concentration,[1]; isolate (source animal id): 44,16 µg/mL
same,minimum inhibitory concentration,[1]; isolate (source animal id): 79,16 µg/mL
same,minimum inhibitory concentration,[1]; isolate (source animal id): 88,≤ 0.25 µg/mL
same,minimum inhibitory concentration,[1]; isolate (source animal id): 91,≤ 0.25 µg/mL
same,minimum inhibitory concentration,[1]; isolate (source animal id): 92,2 µg/mL
same,minimum inhibitory concentration,[1]; isolate (source animal id): 111,≤ 0.25 µg/mL
same,minimum inhibitory concentration,[1]; [3],> 16 µg/mL
same,minimum inhibitory concentration,[1]; [4],8 µg/mL
same,minimum inhibitory concentration,[1]; [5],≤ 0.25 µg/mL
same,minimum inhibitory concentration,[1]; isolate (source animal id): 158,> 16 µg/mL
same,minimum inhibitory concentration,[1]; isolate (source animal id): 168,≤ 0.25 µg/mL
same,minimum inhibitory concentration,[1]; isolate (source animal id): 169,≤ 0.25 µg/mL
same,minimum inhibitory concentration,[1]; [6],16 µg/mL
same,minimum inhibitory concentration,[1]; isolate (source animal id): 175,> 16 µg/mL
same,minimum inhibitory concentration,[1]; isolate (source animal id): 177,16 µg/mL
same,minimum inhibitory concentration,[1]; isolate (source animal id): 181,≤ 0.25 µg/mL
same,minimum inhibitory concentration,[1]; isolate (source animal id): 182,≤ 0.25 µg/mL
same,minimum inhibitory concentration,[1]; [7],16 µg/mL
same,minimum inhibitory concentration,[1]; [8],≤ 0.25 µg/mL
same,minimum inhibitory concentration,[1]; [9],≤ 0.25 µg/mL
same,minimum inhibitory concentration,[1]; isolate (source animal id): 194,16 µg/mL
same,minimum inhibitory concentration,[1]; isolate (source animal id): 195,≤ 0.25 µg/mL
same,minimum inhibitory concentration,[1]; isolate (source animal id): 197,0.5 µg/mL
same,minimum inhibitory concentration,[1]; [10],≤ 0.25 µg/mL
same,minimum inhibitory concentration,[1]; isolate (source animal id): 214,2 µg/mL
same,minimum inhibitory concentration,[1]; isolate (source animal id): 222,16 µg/mL
same,minimum inhibitory concentration,[1]; [11],8 µg/mL
same,minimum inhibitory concentration,[1]; isolate (source animal id): 228,2 µg/mL
same,minimum inhibitory concentration,[1]; isolate (source animal id): 230,2 µg/mL
same,minimum inhibitory concentration,[1]; isolate (source animal id): 235,> 16 µg/mL
same,minimum inhibitory concentration,[1]; isolate (source animal id): 236,8 µg/mL
same,minimum inhibitory concentration,[1]; isolate (source animal id): 239,≤ 0.25 µg/mL
same,minimum inhibitory concentration,[1]; [12],> 16 µg/mL
same,minimum inhibitory concentration,[1]; isolate (source animal id): 244,16 µg/mL
same,minimum inhibitory concentration,[1]; isolate (source animal id): 246,16 µg/mL
same,minimum inhibitory concentration,[1]; isolate (source animal id): 247,> 16 µg/mL
same,minimum inhibitory concentration,[1]; isolate (source animal id): 250,16 µg/mL
same,minimum inhibitory concentration,[1]; [13],> 16 µg/mL
same,minimum inhibitory concentration,[1]; isolate (source animal id): 268,> 16 µg/mL
same,minimum inhibitory concentration,[1]; [14],4 µg/mL
same,minimum inhibitory concentration,[1]; isolate (source animal id): 285,> 16 µg/mL
same,minimum inhibitory concentration,[1]; isolate (source animal id): 289,8 µg/mL
same,minimum inhibitory concentration,[1]; isolate (source animal id): 290,16 µg/mL
same,minimum inhibitory concentration,[1]; isolate (source animal id): 296,16 µg/mL
same,minimum inhibitory concentration,[1]; [15],≤ 0.25 µg/mL
same,minimum inhibitory concentration,[1]; isolate (source animal id): 301,0.5 µg/mL
same,minimum inhibitory concentration,[1]; isolate (source animal id): 310,> 16 µg/mL
same,minimum inhibitory concentration,[1]; [16],4 µg/mL
same,minimum inhibitory concentration,[1]; isolate (source animal id): 331,8 µg/mL
same,minimum inhibitory concentration,[1]; [17],16 µg/mL
same,minimum inhibitory concentration,[1]; isolate (source animal id): 341,> 16 µg/mL
same,minimum inhibitory concentration,[2]; isolate (source animal id): 8,16 µg/mL
same,minimum inhibitory concentration,[2]; isolate (source animal id): 13,16 µg/mL
same,minimum inhibitory concentration,[2]; isolate (source animal id): 18,16 µg/mL
same,minimum inhibitory concentration,[2]; isolate (source animal id): 21,16 µg/mL
same,minimum inhibitory concentration,[2]; isolate (source animal id): 25,> 16 µg/mL
same,minimum inhibitory concentration,[2]; isolate (source animal id): 27,16 µg/mL
same,minimum inhibitory concentration,[2]; isolate (source animal id): 28,16 µg/mL
same,minimum inhibitory concentration,[2]; isolate (source animal id): 30,16 µg/mL
same,minimum inhibitory concentration,[2]; isolate (source animal id): 31,16 µg/mL
same,minimum inhibitory concentration,[2]; isolate (source animal id): 32,8 µg/mL
same,minimum inhibitory concentration,[2]; isolate (source animal id): 34,16 µg/mL
same,minimum inhibitory concentration,[2]; isolate (source animal id): 36,16 µg/mL
same,minimum inhibitory concentration,[2]; isolate (source animal id): 37,16 µg/mL
same,minimum inhibitory concentration,[2]; isolate (source animal id): 40,8 µg/mL
same,minimum inhibitory concentration,[2]; isolate (source animal id): 41,16 µg/mL
same,minimum inhibitory concentration,[2]; isolate (source animal id): 43,16 µg/mL
same,minimum inhibitory concentration,[2]; isolate (source animal id): 46,16 µg/mL
same,minimum inhibitory concentration,[2]; isolate (source animal id): 49,16 µg/mL
same,minimum inhibitory concentration,[2]; isolate (source animal id): 50,16 µg/mL
same,minimum inhibitory concentration,[2]; isolate (source animal id): 51,16 µg/mL
same,minimum inhibitory concentration,[2]; isolate (source animal id): 52,16 µg/mL
same,minimum inhibitory concentration,[2]; isolate (source animal id): 53,8 µg/mL
same,minimum inhibitory concentration,[2]; isolate (source animal id): 55,8 µg/mL
same,minimum inhibitory concentration,[2]; isolate (source animal id): 56,16 µg/mL
same,minimum inhibitory concentration,[2]; isolate (source animal id): 57,> 16 µg/mL
same,minimum inhibitory concentration,[2]; isolate (source animal id): 100,16 µg/mL
same,minimum inhibitory concentration,[2]; isolate (source animal id): 103,16 µg/mL
same,minimum inhibitory concentration,[2]; isolate (source animal id): 107,16 µg/mL
same,minimum inhibitory concentration,[2]; isolate (source animal id): 108,16 µg/mL
same,minimum inhibitory concentration,[2]; isolate (source animal id): 112,> 16 µg/mL
same,minimum inhibitory concentration,[2]; isolate (source animal id): 113,> 16 µg/mL
same,minimum inhibitory concentration,[2]; isolate (source animal id): 121,> 16 µg/mL
same,minimum inhibitory concentration,[2]; [3],16 µg/mL
same,minimum inhibitory concentration,[2]; [4],> 16 µg/mL
same,minimum inhibitory concentration,[2]; isolate (source animal id): 126,> 16 µg/mL
same,minimum inhibitory concentration,[2]; [5],> 16 µg/mL
same,minimum inhibitory concentration,[2]; isolate (source animal id): 135,> 16 µg/mL
same,minimum inhibitory concentration,[2]; isolate (source animal id): 138,> 16 µg/mL
same,minimum inhibitory concentration,[2]; isolate (source animal id): 141,> 16 µg/mL
same,minimum inhibitory concentration,[2]; isolate (source animal id): 142,> 16 µg/mL
same,minimum inhibitory concentration,[2]; isolate (source animal id): 145,8 µg/mL
same,minimum inhibitory concentration,[2]; isolate (source animal id): 149,8 µg/mL
same,minimum inhibitory concentration,[2]; isolate (source animal id): 151,8 µg/mL
same,minimum inhibitory concentration,[2]; isolate (source animal id): 152,16 µg/mL
same,minimum inhibitory concentration,[2]; isolate (source animal id): 154,8 µg/mL
same,minimum inhibitory concentration,[2]; isolate (source animal id): 159,> 16 µg/mL
same,minimum inhibitory concentration,[2]; isolate (source animal id): 162,> 16 µg/mL
same,minimum inhibitory concentration,[2]; isolate (source animal id): 170,16 µg/mL
same,minimum inhibitory concentration,[2]; [6],8 µg/mL
same,minimum inhibitory concentration,[2]; isolate (source animal id): 172,16 µg/mL
same,minimum inhibitory concentration,[2]; isolate (source animal id): 173,16 µg/mL
same,minimum inhibitory concentration,[2]; isolate (source animal id): 179,8 µg/mL
same,minimum inhibitory concentration,[2]; isolate (source animal id): 180,16 µg/mL
same,minimum inhibitory concentration,[2]; [7],16 µg/mL
same,minimum inhibitory concentration,[2]; isolate (source animal id): 186,8 µg/mL
same,minimum inhibitory concentration,[2]; [8],16 µg/mL
same,minimum inhibitory concentration,[2]; isolate (source animal id): 188,16 µg/mL
same,minimum inhibitory concentration,[2]; [9],16 µg/mL
same,minimum inhibitory concentration,[2]; isolate (source animal id): 191,16 µg/mL
same,minimum inhibitory concentration,[2]; isolate (source animal id): 192,8 µg/mL
same,minimum inhibitory concentration,[2]; isolate (source animal id): 201,16 µg/mL
same,minimum inhibitory concentration,[2]; isolate (source animal id): 202,8 µg/mL
same,minimum inhibitory concentration,[2]; isolate (source animal id): 209,16 µg/mL
same,minimum inhibitory concentration,[2]; [10],16 µg/mL
same,minimum inhibitory concentration,[2]; isolate (source animal id): 220,16 µg/mL
same,minimum inhibitory concentration,[2]; isolate (source animal id): 221,16 µg/mL
same,minimum inhibitory concentration,[2]; [11],8 µg/mL
same,minimum inhibitory concentration,[2]; isolate (source animal id): 233,16 µg/mL
same,minimum inhibitory concentration,[2]; isolate (source animal id): 237,16 µg/mL
same,minimum inhibitory concentration,[2]; [12],16 µg/mL
same,minimum inhibitory concentration,[2]; [13],16 µg/mL
same,minimum inhibitory concentration,[2]; isolate (source animal id): 253,16 µg/mL
same,minimum inhibitory concentration,[2]; isolate (source animal id): 259,> 16 µg/mL
same,minimum inhibitory concentration,[2]; isolate (source animal id): 260,16 µg/mL
same,minimum inhibitory concentration,[2]; isolate (source animal id): 262,16 µg/mL
same,minimum inhibitory concentration,[2]; [14],> 16 µg/mL
same,minimum inhibitory concentration,[2]; isolate (source animal id): 287,> 16 µg/mL
same,minimum inhibitory concentration,[2]; isolate (source animal id): 288,16 µg/mL
same,minimum inhibitory concentration,[2]; isolate (source animal id): 291,16 µg/mL
same,minimum inhibitory concentration,[2]; isolate (source animal id): 293,> 16 µg/mL
same,minimum inhibitory concentration,[2]; [15],> 16 µg/mL
same,minimum inhibitory concentration,[2]; isolate (source animal id): 299,> 16 µg/mL
same,minimum inhibitory concentration,[2]; isolate (source animal id): 300,8 µg/mL
same,minimum inhibitory concentration,[2]; isolate (source animal id): 302,> 16 µg/mL
same,minimum inhibitory concentration,[2]; isolate (source animal id): 304,> 16 µg/mL
same,minimum inhibitory concentration,[2]; isolate (source animal id): 306,16 µg/mL
same,minimum inhibitory concentration,[2]; isolate (source animal id): 308,16 µg/mL
same,minimum inhibitory concentration,[2]; isolate (source animal id): 309,16 µg/mL
same,minimum inhibitory concentration,[2]; isolate (source animal id): 313,16 µg/mL
same,minimum inhibitory concentration,[2]; isolate (source animal id): 318,8 µg/mL
same,minimum inhibitory concentration,[2]; [16],16 µg/mL
same,minimum inhibitory concentration,[2]; isolate (source animal id): 321,16 µg/mL
same,minimum inhibitory concentration,[2]; isolate (source animal id): 323,> 16 µg/mL
same,minimum inhibitory concentration,[2]; isolate (source animal id): 324,16 µg/mL
same,minimum inhibitory concentration,[2]; isolate (source animal id): 326,> 16 µg/mL
same,minimum inhibitory concentration,[2]; isolate (source animal id): 328,16 µg/mL
same,minimum inhibitory concentration,[2]; isolate (source animal id): 329,16 µg/mL
same,minimum inhibitory concentration,[2]; [17],16 µg/mL
same,minimum inhibitory concentration,[2]; isolate (source animal id): 335,16 µg/mL
same,minimum inhibitory concentration,[2]; isolate (source animal id): 338,16 µg/mL
